Assays:
Assay in all cases: biochemical
Type in all cases: biochemical
[1] = target: 363 human kinases (including Aurora A/B/C) (Homo sapiens, UniProt Q13882); conditions: BRK, [ATP] 100 µM; for remaining activity at 0.1 µM: 100 nM; for remaining activity at 0.1 µM / remaining activity at 0.5 µM: read-out: % Enzyme Activity (relative to DMSO controls)
Excerpt: (§1) However, the Aurora A/B selectivity ratios derived from our in vitro and in vivo data can be compared to prioritize inhibitors.

[2] = target: 363 human kinases (including Aurora A/B/C) (Homo sapiens, UniProt Q86UE8); conditions: TLK2; for remaining activity at 0.1 µM: 100 nM; for remaining activity at 0.1 µM / remaining activity at 0.5 µM: read-out: % Enzyme Activity (relative to DMSO controls)
Chain of 363 human kinases (including Aurora A/B/C) (Homo sapiens, UniProt Q86UE8) (Q86UE8 whole entry): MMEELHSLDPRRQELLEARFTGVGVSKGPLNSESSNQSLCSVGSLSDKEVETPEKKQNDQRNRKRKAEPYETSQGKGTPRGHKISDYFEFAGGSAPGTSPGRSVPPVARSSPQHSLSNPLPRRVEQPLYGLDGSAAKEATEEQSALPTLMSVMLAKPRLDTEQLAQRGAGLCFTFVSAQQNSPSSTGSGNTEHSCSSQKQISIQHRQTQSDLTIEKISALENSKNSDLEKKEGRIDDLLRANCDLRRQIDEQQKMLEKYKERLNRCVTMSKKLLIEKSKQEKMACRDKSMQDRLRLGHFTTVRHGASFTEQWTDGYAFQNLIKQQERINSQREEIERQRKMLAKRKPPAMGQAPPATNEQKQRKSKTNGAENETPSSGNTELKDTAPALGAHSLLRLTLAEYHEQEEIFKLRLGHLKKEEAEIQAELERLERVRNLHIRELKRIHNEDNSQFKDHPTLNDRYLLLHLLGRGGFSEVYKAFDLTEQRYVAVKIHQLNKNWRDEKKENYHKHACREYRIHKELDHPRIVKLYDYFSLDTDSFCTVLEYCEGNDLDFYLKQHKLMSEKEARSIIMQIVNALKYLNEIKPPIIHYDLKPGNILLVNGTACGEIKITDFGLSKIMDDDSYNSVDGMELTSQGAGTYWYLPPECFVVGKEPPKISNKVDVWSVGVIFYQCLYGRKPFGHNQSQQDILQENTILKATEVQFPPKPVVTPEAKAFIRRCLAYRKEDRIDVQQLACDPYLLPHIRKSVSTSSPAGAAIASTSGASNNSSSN
Excerpt: as §1

[3] = target: 363 human kinases (including Aurora A/B/C) (Homo sapiens, UniProt Q9H792); conditions: PEAK1; for remaining activity at 0.1 µM: 100 nM; for remaining activity at 0.1 µM / remaining activity at 0.5 µM: read-out: % Enzyme Activity (relative to DMSO controls)
Chain of 363 human kinases (including Aurora A/B/C) (Homo sapiens, UniProt Q9H792) (Q9H792 whole entry): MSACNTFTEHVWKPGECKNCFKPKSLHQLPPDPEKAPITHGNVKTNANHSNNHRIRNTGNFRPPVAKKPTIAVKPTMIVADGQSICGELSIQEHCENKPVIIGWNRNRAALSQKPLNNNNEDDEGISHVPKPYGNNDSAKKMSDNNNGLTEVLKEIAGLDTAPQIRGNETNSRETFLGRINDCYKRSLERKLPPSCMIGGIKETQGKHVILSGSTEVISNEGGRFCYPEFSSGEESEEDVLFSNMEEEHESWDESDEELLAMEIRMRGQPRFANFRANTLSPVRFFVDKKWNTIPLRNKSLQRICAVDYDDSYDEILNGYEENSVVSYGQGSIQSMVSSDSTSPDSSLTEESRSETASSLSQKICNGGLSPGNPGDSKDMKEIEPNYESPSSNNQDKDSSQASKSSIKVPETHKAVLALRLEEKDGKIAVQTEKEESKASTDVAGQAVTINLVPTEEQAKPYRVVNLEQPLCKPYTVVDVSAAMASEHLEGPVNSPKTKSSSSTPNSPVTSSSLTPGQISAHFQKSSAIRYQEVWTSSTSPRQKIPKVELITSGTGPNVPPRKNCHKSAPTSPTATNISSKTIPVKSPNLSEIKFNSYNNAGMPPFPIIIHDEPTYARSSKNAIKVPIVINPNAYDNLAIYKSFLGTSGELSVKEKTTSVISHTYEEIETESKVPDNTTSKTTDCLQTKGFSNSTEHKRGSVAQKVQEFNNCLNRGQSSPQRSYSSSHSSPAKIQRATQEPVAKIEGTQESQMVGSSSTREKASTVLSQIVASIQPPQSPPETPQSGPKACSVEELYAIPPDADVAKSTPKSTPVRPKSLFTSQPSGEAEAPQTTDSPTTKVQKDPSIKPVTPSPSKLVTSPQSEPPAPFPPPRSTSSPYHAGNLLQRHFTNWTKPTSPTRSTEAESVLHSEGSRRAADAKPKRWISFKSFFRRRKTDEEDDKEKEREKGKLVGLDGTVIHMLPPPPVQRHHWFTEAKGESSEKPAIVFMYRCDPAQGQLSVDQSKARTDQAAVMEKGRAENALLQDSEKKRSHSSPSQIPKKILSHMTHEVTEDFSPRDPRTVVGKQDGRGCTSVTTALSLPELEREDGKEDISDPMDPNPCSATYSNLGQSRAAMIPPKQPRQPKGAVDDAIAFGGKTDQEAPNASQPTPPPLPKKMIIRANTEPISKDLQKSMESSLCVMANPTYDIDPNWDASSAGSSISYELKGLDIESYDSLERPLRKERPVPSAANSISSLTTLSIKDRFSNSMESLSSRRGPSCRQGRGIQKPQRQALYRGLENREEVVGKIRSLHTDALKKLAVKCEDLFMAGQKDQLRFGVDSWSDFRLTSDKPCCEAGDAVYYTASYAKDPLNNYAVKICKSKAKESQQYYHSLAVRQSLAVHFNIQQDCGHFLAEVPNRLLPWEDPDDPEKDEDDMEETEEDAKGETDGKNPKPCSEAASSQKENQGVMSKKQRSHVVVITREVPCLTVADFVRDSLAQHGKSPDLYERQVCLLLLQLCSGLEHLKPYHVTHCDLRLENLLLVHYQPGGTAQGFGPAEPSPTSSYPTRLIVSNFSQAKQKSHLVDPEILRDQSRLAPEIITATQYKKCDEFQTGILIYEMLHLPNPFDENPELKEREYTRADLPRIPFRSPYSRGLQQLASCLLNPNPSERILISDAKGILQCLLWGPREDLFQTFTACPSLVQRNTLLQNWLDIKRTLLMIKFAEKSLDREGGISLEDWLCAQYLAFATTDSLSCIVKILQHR
Excerpt: as §1

[4] = target: T1, 363 human kinases (including Aurora A/B/C) (Homo sapiens, UniProt Q9UEE5); conditions: DRAK1/STK17A, [ATP] 30 µM; for remaining activity at 0.1 µM: 100 nM; for remaining activity at 0.1 µM / remaining activity at 0.5 µM: read-out: % Enzyme Activity (relative to DMSO controls)
T1 sequence (Q9UEE5 1-414): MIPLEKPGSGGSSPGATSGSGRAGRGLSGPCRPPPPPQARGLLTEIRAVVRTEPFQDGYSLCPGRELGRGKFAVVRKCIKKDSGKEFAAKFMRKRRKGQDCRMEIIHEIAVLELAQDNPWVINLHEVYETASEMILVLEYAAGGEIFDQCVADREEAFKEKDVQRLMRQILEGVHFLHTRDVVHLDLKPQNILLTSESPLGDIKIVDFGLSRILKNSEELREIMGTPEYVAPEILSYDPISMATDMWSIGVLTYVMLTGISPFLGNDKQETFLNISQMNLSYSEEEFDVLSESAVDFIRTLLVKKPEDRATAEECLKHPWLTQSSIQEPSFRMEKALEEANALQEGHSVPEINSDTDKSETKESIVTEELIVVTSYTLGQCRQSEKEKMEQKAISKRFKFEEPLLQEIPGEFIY
Excerpt: as §1

[5] = target: T2, 363 human kinases (including Aurora A/B/C) (Homo sapiens, UniProt Q6XUX3); conditions: RIPK5; for remaining activity at 0.1 µM: 100 nM; for remaining activity at 0.1 µM / remaining activity at 0.5 µM: read-out: % Enzyme Activity (relative to DMSO controls)
T2 sequence (Q6XUX3 1-929): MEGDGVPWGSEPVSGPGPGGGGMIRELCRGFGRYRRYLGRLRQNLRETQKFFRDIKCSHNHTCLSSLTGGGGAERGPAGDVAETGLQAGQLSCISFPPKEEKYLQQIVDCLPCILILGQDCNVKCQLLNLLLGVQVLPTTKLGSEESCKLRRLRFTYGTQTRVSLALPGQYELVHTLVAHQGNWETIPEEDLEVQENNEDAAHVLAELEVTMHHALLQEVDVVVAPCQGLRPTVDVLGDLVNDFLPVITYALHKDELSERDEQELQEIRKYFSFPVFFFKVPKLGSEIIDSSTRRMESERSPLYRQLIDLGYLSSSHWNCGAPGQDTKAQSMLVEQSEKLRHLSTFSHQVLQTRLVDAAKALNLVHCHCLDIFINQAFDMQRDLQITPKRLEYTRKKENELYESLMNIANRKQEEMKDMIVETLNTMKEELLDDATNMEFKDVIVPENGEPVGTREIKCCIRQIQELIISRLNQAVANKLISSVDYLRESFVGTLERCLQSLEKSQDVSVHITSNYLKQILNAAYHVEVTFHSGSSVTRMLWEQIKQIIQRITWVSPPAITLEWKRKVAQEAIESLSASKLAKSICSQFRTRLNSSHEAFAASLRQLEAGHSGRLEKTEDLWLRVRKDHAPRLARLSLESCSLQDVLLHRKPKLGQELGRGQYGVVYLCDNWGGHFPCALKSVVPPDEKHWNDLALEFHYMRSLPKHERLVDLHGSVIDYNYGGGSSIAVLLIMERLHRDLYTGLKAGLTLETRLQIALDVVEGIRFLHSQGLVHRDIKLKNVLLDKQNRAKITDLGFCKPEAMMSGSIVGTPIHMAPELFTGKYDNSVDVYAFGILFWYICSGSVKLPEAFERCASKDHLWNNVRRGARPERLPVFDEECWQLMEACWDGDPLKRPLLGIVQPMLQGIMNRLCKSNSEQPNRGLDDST
Excerpt: as §1

[6] = target: T3, 363 human kinases (including Aurora A/B/C) (Homo sapiens, UniProt P29323); conditions: EPHB2, [ATP] 30 µM; for remaining activity at 0.1 µM: 100 nM; for remaining activity at 0.1 µM / remaining activity at 0.5 µM: read-out: % Enzyme Activity (relative to DMSO controls)
T3 sequence (P29323 19-1055): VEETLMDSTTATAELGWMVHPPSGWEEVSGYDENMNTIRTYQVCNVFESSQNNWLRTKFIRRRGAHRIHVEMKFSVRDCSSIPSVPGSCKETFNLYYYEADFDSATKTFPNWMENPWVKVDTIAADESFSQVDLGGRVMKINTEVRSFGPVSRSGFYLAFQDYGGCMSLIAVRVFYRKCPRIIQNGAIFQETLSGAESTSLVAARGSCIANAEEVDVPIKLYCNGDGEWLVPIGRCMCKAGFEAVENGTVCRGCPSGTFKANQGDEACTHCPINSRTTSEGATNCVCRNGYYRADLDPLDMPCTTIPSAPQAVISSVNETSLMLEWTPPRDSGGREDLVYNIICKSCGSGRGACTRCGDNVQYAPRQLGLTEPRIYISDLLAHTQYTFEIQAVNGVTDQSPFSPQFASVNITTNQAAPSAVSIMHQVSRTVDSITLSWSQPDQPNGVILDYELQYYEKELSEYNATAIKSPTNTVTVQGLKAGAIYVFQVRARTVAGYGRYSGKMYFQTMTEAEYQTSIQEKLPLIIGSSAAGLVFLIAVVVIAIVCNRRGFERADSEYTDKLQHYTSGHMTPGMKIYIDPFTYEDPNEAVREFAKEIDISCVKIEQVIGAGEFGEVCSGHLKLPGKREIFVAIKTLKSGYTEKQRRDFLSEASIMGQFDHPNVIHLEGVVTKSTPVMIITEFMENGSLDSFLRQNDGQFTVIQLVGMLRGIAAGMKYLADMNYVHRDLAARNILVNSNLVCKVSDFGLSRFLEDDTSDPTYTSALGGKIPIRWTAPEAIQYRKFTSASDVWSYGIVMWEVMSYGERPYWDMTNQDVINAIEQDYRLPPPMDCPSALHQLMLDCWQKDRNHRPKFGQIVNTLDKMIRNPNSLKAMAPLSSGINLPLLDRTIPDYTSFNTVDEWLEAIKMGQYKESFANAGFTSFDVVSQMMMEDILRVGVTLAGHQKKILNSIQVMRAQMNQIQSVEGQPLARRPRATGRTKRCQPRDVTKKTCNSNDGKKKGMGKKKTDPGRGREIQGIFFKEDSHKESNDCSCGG
Excerpt: as §1

[7] = target: 363 human kinases (including Aurora A/B/C) (Homo sapiens, UniProt Q8N568); conditions: DCAMKL2, [ATP] 100 µM; for remaining activity at 0.1 µM: 100 nM; for remaining activity at 0.1 µM / remaining activity at 0.5 µM: read-out: % Enzyme Activity (relative to DMSO controls)
Chain of 363 human kinases (including Aurora A/B/C) (Homo sapiens, UniProt Q8N568) (Q8N568 whole entry): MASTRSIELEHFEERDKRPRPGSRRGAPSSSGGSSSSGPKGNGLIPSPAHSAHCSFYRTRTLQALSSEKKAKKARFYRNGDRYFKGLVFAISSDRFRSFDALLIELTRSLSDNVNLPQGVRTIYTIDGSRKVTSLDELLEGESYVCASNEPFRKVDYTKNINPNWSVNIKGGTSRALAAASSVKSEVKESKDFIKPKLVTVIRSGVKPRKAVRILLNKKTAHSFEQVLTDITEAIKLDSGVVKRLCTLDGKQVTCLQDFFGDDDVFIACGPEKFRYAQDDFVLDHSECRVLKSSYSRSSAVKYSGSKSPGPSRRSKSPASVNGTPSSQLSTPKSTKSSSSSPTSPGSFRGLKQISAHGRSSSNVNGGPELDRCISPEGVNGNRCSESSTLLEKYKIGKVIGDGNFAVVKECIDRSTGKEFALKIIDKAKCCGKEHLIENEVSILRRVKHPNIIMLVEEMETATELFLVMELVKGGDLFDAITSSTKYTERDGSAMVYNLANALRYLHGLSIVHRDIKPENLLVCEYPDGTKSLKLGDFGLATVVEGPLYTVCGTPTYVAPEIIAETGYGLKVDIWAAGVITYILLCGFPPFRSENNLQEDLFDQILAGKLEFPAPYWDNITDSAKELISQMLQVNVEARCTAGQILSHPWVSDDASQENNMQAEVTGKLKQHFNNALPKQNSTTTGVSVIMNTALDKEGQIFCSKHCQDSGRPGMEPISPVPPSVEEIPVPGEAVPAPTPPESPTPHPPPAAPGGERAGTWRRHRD
Excerpt: as §1

Chain of 363 human kinases (including Aurora A/B/C) (Homo sapiens, UniProt Q13882) (Q13882 whole entry): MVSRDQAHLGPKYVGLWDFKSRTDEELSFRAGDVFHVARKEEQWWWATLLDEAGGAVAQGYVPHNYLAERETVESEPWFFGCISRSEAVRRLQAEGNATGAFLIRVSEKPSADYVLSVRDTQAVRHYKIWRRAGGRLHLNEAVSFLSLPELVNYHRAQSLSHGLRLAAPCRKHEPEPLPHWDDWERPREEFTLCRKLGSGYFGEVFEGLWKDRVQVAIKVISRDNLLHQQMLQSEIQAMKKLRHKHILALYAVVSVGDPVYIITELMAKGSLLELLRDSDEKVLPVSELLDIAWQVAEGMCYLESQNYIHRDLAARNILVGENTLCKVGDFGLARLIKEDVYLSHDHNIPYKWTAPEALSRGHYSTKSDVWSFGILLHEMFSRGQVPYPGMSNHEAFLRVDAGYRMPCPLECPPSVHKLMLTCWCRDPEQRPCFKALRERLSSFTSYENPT

Row | Compound | remaining activity at 0.1 µM [1] | remaining activity at 0.5 µM ([1]; 500 nM) | remaining activity at 0.1 µM [2] | remaining activity at 0.5 µM ([2]; 500 nM) | remaining activity at 0.1 µM [3] | remaining activity at 0.5 µM ([3]; 500 nM) | remaining activity at 0.1 µM [4] | remaining activity at 0.5 µM ([4]; 500 nM) | remaining activity at 0.1 µM [5] | remaining activity at 0.5 µM ([5]; 500 nM) | remaining activity at 0.1 µM [6] | remaining activity at 0.5 µM ([6]; 500 nM) | remaining activity at 0.1 µM [7] | remaining activity at 0.5 µM ([7]; 500 nM) | other results
1 | O=C(O)[C@]1(Cc2cccc(Nc3nccs3)n2)CC[C@@H](Oc2cccc(Cl)c2F)CC1 [MK-5108] | 20.2% | 3.11% | 111% | 98.3% | 30.5% | 11.6% | 105% | 102% | 96.6% | 123% | 59.4% | 32% | 98.2% | 96.3% | –
2 | O=C(c1cccc(Cl)c1F)N1CCN(Cc2cccc(Nc3nccs3)n2)CC1 [MK-8745] | – | 29% | – | 100% | – | 39.1% | – | 104% | – | 105% | – | 81.8% | – | 96% | % Enzyme Activity (relative to DMSO controls) ([1]; 500 nM): 29.01%; % Enzyme Activity (relative to DMSO controls) ([2]; 500 nM): 99.16%; % Enzyme Activity (relative to DMSO controls) ([3]; 500 nM): 38.63%; % Enzyme Activity (relative to DMSO controls) ([4]; 500 nM): 102.39%; % Enzyme Activity (relative to DMSO controls) ([5]; 500 nM): 103.95%; % Enzyme Activity (relative to DMSO controls) ([6]; 500 nM): 80.85%; % Enzyme Activity (relative to DMSO controls) ([7]; 500 nM): 95.95%
3 | CCn1cc(-c2ccnc3[nH]c(-c4cccc(CN(C)C)c4)cc23)c(-c2ccc(NC(=O)N(C)C)cc2)n1 [GSK1070916] | 76.6% | – | 100% | – | 90% | – | 109% | – | 114% | – | 97.1% | – | 91.5% | – | –
